Test results from patent US8410302B2, “Methoxyimino compounds and fungicide composition comprising same” (Kyung Nong Corporation, priority 2007, dated 2013).
Like-named read-outs stand apart in the source and are kept apart here.

Assays:
[1] = tested on: Pyricularia oryzae Carvara KA301; assay: whole plant or invertebrate; format: in vivo; conditions: for pest or weed control at 2 ppm / pest or weed control at 10 ppm / pest or weed control at 50 ppm / pest or weed control at 100 ppm: Pyricularia oryzae, read-out: RCB control value (C.V.); for RCB control value (C.V.): rice blast
[2] = tested on: Botrytis cinerae; assay: Fungicidal activity against cucumber gray mold rot (CGM) disease, control value; format: in vivo; conditions: 100 ppm; for pest or weed control at 100 ppm: Botrytis, read-out: CGM control value (C.V.)
[3] = tested on: Phytophthora infestans; assay: whole plant or invertebrate; format: in vivo; conditions: for pest or weed control at 10 ppm / pest or weed control at 50 ppm / pest or weed control at 100 ppm / pest or weed control at 2 ppm: Phytophthora infestans, in Solanum lycopersicum, read-out: TLB control value (C.V.); for TLB control value (C.V.): tomato late blight
[4] = tested on: Puccinia recondita; assay: Fungicidal activity against wheat leaf rust (WLR) disease, control value; format: in vivo; conditions: for pest or weed control at 2 ppm / pest or weed control at 10 ppm / pest or weed control at 50 ppm / pest or weed control at 100 ppm: read-out: WLR control value (C.V.)
[5] = tested on: Erysiphae graminis; assay: Fungicidal activity against barley powdery mildew (BPM) disease, control value; format: in vivo; conditions: for pest or weed control at 2 ppm / pest or weed control at 10 ppm / pest or weed control at 50 ppm / pest or weed control at 100 ppm: 168 h, read-out: BPM control value (C.V.)
[6] = tested on: Rhizoctonia solani AG-1; assay: Fungicidal activity against rice sheath blight (RSB) disease, control value; conditions: for pest or weed control at 2 ppm / pest or weed control at 10 ppm / pest or weed control at 50 ppm / pest or weed control at 100 ppm: Rhizoctonia solani, AG1, in Oryza sativa, read-out: RSB control value (C.V.); for RSB control value (C.V.): rice sheath blight
[7] = Hordeum vulgare, 2 ppm, barley powdery mildew
[8] = Hordeum vulgare, 10 ppm, barley powdery mildew
[9] = Hordeum vulgare, 50 ppm, barley powdery mildew
[10] = Hordeum vulgare, 100 ppm, barley powdery mildew

Work on `CNC(=O)/C(=N/OC)c1ccccc1COc1c(C)cccc1C=C(Br)Br` [Example 74, (E)-2-(2-((2-(2,2-dibromovinyl)-6-methylphenoxy)methyl)phenyl)-2-methoxyimino-N-methylacetamide] yielded a pest or weed control at 2 ppm [1] of 10%, a pest or weed control at 10 ppm [1] of 90% and a pest or weed control at 50 ppm [1] of 100%. It also gave a pest or weed control at 100 ppm [1] of 100%, a pest or weed control at 100 ppm [2] of 35% and a pest or weed control at 10 ppm [3] of 80%. The pest or weed control at 50 ppm [3] was 90%, the pest or weed control at 100 ppm [3] was 100% and the pest or weed control at 2 ppm ([4]; Puccinia recondita, 2 ppm) was 90%. It also gave a pest or weed control at 10 ppm ([4]; Puccinia recondita, 10 ppm) of 99%, a pest or weed control at 50 ppm ([4]; Puccinia recondita, 50 ppm) of 100% and a pest or weed control at 100 ppm ([4]; Puccinia recondita, 100 ppm) of 100%. The pest or weed control at 2 ppm ([5]; 2 ppm) was 92%, the pest or weed control at 10 ppm ([5]; 10 ppm) was 100% and the pest or weed control at 50 ppm ([5]; 50 ppm) was 100%. It also gave a pest or weed control at 100 ppm ([5]; 100 ppm) of 100%, a pest or weed control at 2 ppm [6] of 67% and a pest or weed control at 10 ppm [6] of 80%. The pest or weed control at 50 ppm [6] was 90% and the pest or weed control at 100 ppm [6] was 100%.
With `CO/N=C(/C(=O)OC)c1ccccc1COc1cccc(C=C(Cl)Cl)c1Cl` [Example 43, methyl-(E)-2-(2-((2-chloro-3-(2,2-dichlorovinyl)phenoxy)methyl)phenyl)-2-methoxyiminoacetate] the pest or weed control at 2 ppm [1] was 90%, the pest or weed control at 10 ppm [1] was 99% and the pest or weed control at 50 ppm [1] was 100%. It also gave a pest or weed control at 100 ppm [1] of 100%, a pest or weed control at 100 ppm ([2]; cucumber gray mold rot) of 0% and a pest or weed control at 2 ppm [3] of 100%. The pest or weed control at 10 ppm [3] was 100%, the pest or weed control at 50 ppm [3] was 100% and the pest or weed control at 100 ppm [3] was 100%. For the same molecule, the pest or weed control at 2 ppm ([4]; 2 ppm, wheat leaf rust) was 100%, the pest or weed control at 10 ppm ([4]; 10 ppm, wheat leaf rust) was 100% and the pest or weed control at 50 ppm ([4]; 50 ppm, wheat leaf rust) was 100%. The pest or weed control at 100 ppm ([4]; 100 ppm, wheat leaf rust) was 100%, the pest or weed control at 2 ppm [5, 7] was 100% and the pest or weed control at 10 ppm [5, 8] was 100%. The pest or weed control at 50 ppm [5, 9] was 100%, the pest or weed control at 100 ppm [5, 10] was 100% and the pest or weed control at 2 ppm [6] was 90%. It also gave a pest or weed control at 10 ppm [6] of 100%, a pest or weed control at 50 ppm [6] of 100% and a pest or weed control at 100 ppm [6] of 100%.
`CO/N=C(/C(=O)OC)c1ccccc1COc1cccc(C=C(Cl)Cl)c1` [Example 1, methyl-(E)-2-(2-((3-(2,2-dichlorovinyl)phenoxy)methyl)phenyl)-2-methoxyiminoacetate] was tested, and the pest or weed control at 2 ppm [1] was 13%, the pest or weed control at 10 ppm [1] was 50% and the pest or weed control at 50 ppm [1] was 92%. It also gave a pest or weed control at 100 ppm [1] of 100%, a pest or weed control at 100 ppm ([2]; cucumber gray mold rot) of 29% and a pest or weed control at 2 ppm [3] of 80%. The pest or weed control at 10 ppm [3] was 92%, the pest or weed control at 50 ppm [3] was 100% and the pest or weed control at 100 ppm [3] was 100%. The pest or weed control at 2 ppm ([4]; 2 ppm, wheat leaf rust) was 98%, the pest or weed control at 10 ppm ([4]; 10 ppm, wheat leaf rust) was 100% and the pest or weed control at 50 ppm ([4]; 50 ppm, wheat leaf rust) was 100%. For the same molecule, the pest or weed control at 100 ppm ([4]; 100 ppm, wheat leaf rust) was 100%, the pest or weed control at 2 ppm [5, 7] was 100% and the pest or weed control at 10 ppm [5, 8] was 100%. For the same molecule, the pest or weed control at 50 ppm [5, 9] was 100%, the pest or weed control at 100 ppm [5, 10] was 100% and the pest or weed control at 100 ppm [6] was 45%.
In the case of `CO/N=C(/C(=O)OC)c1ccccc1COc1ccc(C=C(Br)Br)c(Cl)c1` [Example 81, methyl-(E)-2-(2-((4-(2,2-dibromovinyl)-3-chlorophenoxy)methyl)phenyl)-2-methoxyiminoacetate], the pest or weed control at 2 ppm [1] is reported as 70%, the pest or weed control at 10 ppm [1] is reported as 90% and the pest or weed control at 50 ppm [1] is reported as 100%. The pest or weed control at 100 ppm [1] was 100%, the pest or weed control at 100 ppm [2] was 60% and the pest or weed control at 2 ppm [3] was 60%. The pest or weed control at 10 ppm [3] was 90%, the pest or weed control at 50 ppm [3] was 98% and the pest or weed control at 100 ppm [3] was 100%. It also gave a pest or weed control at 2 ppm ([4]; Puccinia recondita, 2 ppm) of 95%, a pest or weed control at 10 ppm ([4]; Puccinia recondita, 10 ppm) of 100% and a pest or weed control at 50 ppm ([4]; Puccinia recondita, 50 ppm) of 100%. The pest or weed control at 100 ppm ([4]; Puccinia recondita, 100 ppm) was 100%, the pest or weed control at 2 ppm ([5]; 2 ppm) was 98% and the pest or weed control at 10 ppm ([5]; 10 ppm) was 100%. The pest or weed control at 50 ppm ([5]; 50 ppm) was 100%, the pest or weed control at 100 ppm ([5]; 100 ppm) was 100% and the pest or weed control at 2 ppm [6] was 55%. For the same molecule, the pest or weed control at 10 ppm [6] was 98%, the pest or weed control at 50 ppm [6] was 100% and the pest or weed control at 100 ppm [6] was 100%.
In the case of `CNC(=O)/C(=N/OC)c1ccccc1COc1c(OC)ccc(C=C(Cl)Cl)c1Br` [Example 52], the “RCB control value (C.V.)” value ([1]; 2 ppm) is reported as 70%, the “RCB control value (C.V.)” value ([1]; 10 ppm) is reported as 100% and the “RCB control value (C.V.)” value ([1]; 50 ppm) is reported as 100%. For the same molecule, the “RCB control value (C.V.)” value ([1]; 100 ppm) was 100%, the “CGM control value (C.V.)” value ([2]; cucumber gray mold rot) was 45% and the “TLB control value (C.V.)” value ([3]; 2 ppm) was 95%. The “TLB control value (C.V.)” value ([3]; 10 ppm) was 100%, the “TLB control value (C.V.)” value ([3]; 50 ppm) was 100% and the “TLB control value (C.V.)” value ([3]; 100 ppm) was 100%. For the same molecule, the “WLR control value (C.V.)” value ([4]; 2 ppm, wheat leaf rust) was 100%, the “WLR control value (C.V.)” value ([4]; 10 ppm, wheat leaf rust) was 100% and the “WLR control value (C.V.)” value ([4]; 50 ppm, wheat leaf rust) was 100%. For the same molecule, the “WLR control value (C.V.)” value ([4]; 100 ppm, wheat leaf rust) was 100%, the “BPM control value (C.V.)” value ([5]; 2 ppm, barley powdery mildew) was 99% and the “BPM control value (C.V.)” value ([5]; 10 ppm, barley powdery mildew) was 100%. The “BPM control value (C.V.)” value ([5]; 50 ppm, barley powdery mildew) was 100%, the “BPM control value (C.V.)” value ([5]; 100 ppm, barley powdery mildew) was 100% and the “RSB control value (C.V.)” value ([6]; 2 ppm) was 95%. For the same molecule, the “RSB control value (C.V.)” value ([6]; 10 ppm) was 100%, the “RSB control value (C.V.)” value ([6]; 50 ppm) was 100% and the “RSB control value (C.V.)” value ([6]; 100 ppm) was 100%.
With `CCOc1cc(C=C(Br)Br)ccc1OCc1ccccc1/C(=N\OC)C(=O)NC` [Example 84, (E)-2-(2-((4-(2,2-dibromovinyl)-2-ethoxyphenoxy)methyl)phenyl)-2-methoxyimino-N-methylacetamide] the pest or weed control at 2 ppm [1] was 30%, the pest or weed control at 10 ppm [1] was 90% and the pest or weed control at 50 ppm [1] was 100%. It also gave a pest or weed control at 100 ppm [1] of 100%, a pest or weed control at 100 ppm [2] of 70% and a pest or weed control at 2 ppm [3] of 70%. It also gave a pest or weed control at 10 ppm [3] of 90%, a pest or weed control at 50 ppm [3] of 98% and a pest or weed control at 100 ppm [3] of 100%. For the same molecule, the pest or weed control at 2 ppm ([4]; Puccinia recondita, 2 ppm) was 95%, the pest or weed control at 10 ppm ([4]; Puccinia recondita, 10 ppm) was 100% and the pest or weed control at 50 ppm ([4]; Puccinia recondita, 50 ppm) was 100%. For the same molecule, the pest or weed control at 100 ppm ([4]; Puccinia recondita, 100 ppm) was 100%, the pest or weed control at 2 ppm ([5]; 2 ppm) was 90% and the pest or weed control at 10 ppm ([5]; 10 ppm) was 100%. It also gave a pest or weed control at 50 ppm ([5]; 50 ppm) of 100%, a pest or weed control at 100 ppm ([5]; 100 ppm) of 100% and a pest or weed control at 2 ppm [6] of 55%. For the same molecule, the pest or weed control at 10 ppm [6] was 98%, the pest or weed control at 50 ppm [6] was 100% and the pest or weed control at 100 ppm [6] was 100%.
With `CNC(=O)/C(=N/OC)c1ccccc1COc1ccc(C=C(F)F)cc1` [Example 10, (E)-2-(2-((4-(2,2-difluorovinyl)phenoxy)methyl)phenyl)-2-methoxyimino-N-methylacetamide] the pest or weed control at 2 ppm [1] was 100%, the pest or weed control at 10 ppm [1] was 100% and the pest or weed control at 50 ppm [1] was 100%. For the same molecule, the pest or weed control at 100 ppm [1] was 100%, the pest or weed control at 100 ppm ([2]; cucumber gray mold rot) was 50% and the pest or weed control at 2 ppm [3] was 100%. The pest or weed control at 10 ppm [3] was 100%, the pest or weed control at 50 ppm [3] was 100% and the pest or weed control at 100 ppm [3] was 100%. The pest or weed control at 2 ppm ([4]; 2 ppm, wheat leaf rust) was 100%, the pest or weed control at 10 ppm ([4]; 10 ppm, wheat leaf rust) was 100% and the pest or weed control at 50 ppm ([4]; 50 ppm, wheat leaf rust) was 100%. The pest or weed control at 100 ppm ([4]; 100 ppm, wheat leaf rust) was 100%, the pest or weed control at 50 ppm [5, 9] was 60% and the pest or weed control at 100 ppm [5, 10] was 98%. It also gave a pest or weed control at 100 ppm [6] of 45%.
Work on `CNC(=O)/C(=N/OC)c1ccccc1COc1ccc(F)cc1C=C(Br)Br` [Example 80, (E)-2-(2-((2-(2,2-dibromovinyl)-4-fluorophenoxy)methyl)phenyl)-2-methoxyimino-N-methylacetamide] yielded a pest or weed control at 2 ppm [1] of 35%, a pest or weed control at 10 ppm [1] of 90% and a pest or weed control at 50 ppm [1] of 100%. The pest or weed control at 100 ppm [1] was 100%, the pest or weed control at 100 ppm [2] was 55% and the pest or weed control at 2 ppm [3] was 70%. The pest or weed control at 10 ppm [3] was 90%, the pest or weed control at 50 ppm [3] was 98% and the pest or weed control at 100 ppm [3] was 100%. It also gave a pest or weed control at 2 ppm ([4]; Puccinia recondita, 2 ppm) of 95%, a pest or weed control at 10 ppm ([4]; Puccinia recondita, 10 ppm) of 100% and a pest or weed control at 50 ppm ([4]; Puccinia recondita, 50 ppm) of 100%. The pest or weed control at 100 ppm ([4]; Puccinia recondita, 100 ppm) was 100%, the pest or weed control at 2 ppm ([5]; 2 ppm) was 90% and the pest or weed control at 10 ppm ([5]; 10 ppm) was 100%. The pest or weed control at 50 ppm ([5]; 50 ppm) was 100%, the pest or weed control at 100 ppm ([5]; 100 ppm) was 100% and the pest or weed control at 2 ppm [6] was 65%. For the same molecule, the pest or weed control at 10 ppm [6] was 98%, the pest or weed control at 50 ppm [6] was 100% and the pest or weed control at 100 ppm [6] was 100%.
